Assay results taken from patent US20220340916A1, “METHODS FOR TRANSFORMING WHEAT EXPLANTS AND COMPOSITIONS THEREFOR” (MONSANTO TECHNOLOGY LLC, priority 2013, published 2022).

O=C(NO)c1ccccc1O [SHAM, salicylhydroxamic acid]
effect of soaking WDSDEs on oxygen consumption (wheat WDSDEs): No effect
effect on oxygen consumption when added to the reaction chamber during an oxygen measurement (wheat WDSDEs): Very little effect

CCO [ethanol]
effect of ethanol exposure on intact seed germination on media (wheat seed; 70% ethanol, FIG. 2): time-dependent effect
germination of intact seeds as measured by root and shoot development on media (wheat seed; sanitization treatments involving ethanol, FIG. 1): reduced germination
viability of WDSDEs produced from treated seed (WDSDEs): acceptable
cleanliness of WDSDEs excised from treated seed (WDSDEs; seed sanitization, 10% Clorox bleach, ethanol used cold (~0° C.)): less efficient
